From patent publication US6130232A, “Substituted piperidine derivatives as muscarinic M3 receptor antagonists” (Banyu Pharmaceutical Coaltd, priority 1995, dated 2000)

Key:
muscarinic M2 receptor = biological target: T1, muscarinic M2 receptor (Rattus norvegicus, UniProt P10980); experiment: Inhibition of M2 muscarinic receptor binding ([3H]-N-methylscopolamine, heart membrane); settings: 0.2 nM [3H]-N-methylscopolamine
T1 construct: the membrane preparations of the heart were used as the test specimens; from tissue; host or cells: rat heart membranes (male SD rats)
T1 sequence (P10980 1-466): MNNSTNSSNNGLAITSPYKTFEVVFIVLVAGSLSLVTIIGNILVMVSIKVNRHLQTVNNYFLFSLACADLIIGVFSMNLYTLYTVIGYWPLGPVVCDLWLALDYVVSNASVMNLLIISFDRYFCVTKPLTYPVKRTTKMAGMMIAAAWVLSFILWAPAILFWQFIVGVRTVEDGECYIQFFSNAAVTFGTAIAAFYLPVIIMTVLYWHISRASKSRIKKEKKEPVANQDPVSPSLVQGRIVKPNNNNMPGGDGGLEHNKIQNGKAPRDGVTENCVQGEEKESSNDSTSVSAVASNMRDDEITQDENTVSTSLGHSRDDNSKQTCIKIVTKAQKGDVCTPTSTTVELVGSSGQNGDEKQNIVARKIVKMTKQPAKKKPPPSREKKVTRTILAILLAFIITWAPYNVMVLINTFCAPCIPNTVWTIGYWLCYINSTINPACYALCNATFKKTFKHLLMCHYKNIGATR
Experimental: Hereinafter action of compounds of the present invention to inhibit binding to muscarinic receptors and their in vitro and in vivo antagonism to muscarinic receptors are described, to concretely indicate utility of the present invention. As the labelling ligand for M1 muscarinic receptor, [^3 H]-telenzepine was used and as that for M2 and M3 muscarinic receptors, [^3 H]-N-methyl-scopolamine was used, and dissociation constants (Ki) were calculated from concentration of each of the tested compounds to inhibit binding of the labelling ligand by 50% (IC50).
(§1) Male SD strain rats weighing each 250 g-350 g [Japan Charles River K.K.] were sacrificed and their cerebral cortices, hearts and lacrimal glands were extirpated. The isolated organs were homogenized with Polytron (setting: 5) in an ice-cooled, 5-times diluted buffer solution (pH 7.4) containing 50 mM tris-hydrochloric acid, 5 mM magnesium chloride, 1 mM ethylenediamine-tetraacetic acid trisodium salt and 20% sucrose, followed by 15 minutes' centrifuge at 3,000×g and 4° C. After filtering the supernatant through gauze cloth, the filtrate was further subjected to an ultracentrifugation at 100,000×g at 4° C. for 45 minutes. The resultant precipitate was suspended in an ice-cooled buffer solution (pH 7.4, hereafter abbreviated as tris buffer) containing 50 mM tris-hydrochloric acid and 5 mM magnesium chloride. The suspension was subjected to an ultracentrifugation at 100,000×g at 4° C. for 45 minutes. The resultant precipitate was suspended in tris buffer at a concentration of 50 mg/ml and kept at -80° C. until the time of use. It was melted at the time of use in the binding inhibition tests.
These tests were performed according to a modification of the method of Hargreaves et al. (Br. J. Pharmacol. 107: pp. 494-501, 1992). […] After drying the filter at 50° C. for an hour, a scintillator (Microscinti O: Packard Instrument Co., Inc.) was added and the radioactivity of the [^3 H]-telenzepine which was adsorbed onto the filter was measured with a microplate scintillation counter (Top Count: Packard Instrument Co., Inc.). Non-specific binding of [^3 H]-telenzepine to the receptors was determined under addition of 10 μM pirenzepine. […]
(§2) The test was conducted in the manner similar to above 2) M1 muscarinic receptor binding inhibition test, except that the membrane preparations of the heart were used as the test specimens and 0.2 nM [^3 H]-N-methylscopolamine ([^3 H]-N-Methylscopolamine, 84 Ci/mmol, New England Nuclear) was used as the labelling ligand. Non-specific binding of [^3 H]-N-methylscopolamine to the receptors was determined under addition of 1 μM N-methylscopolamine.

muscarinic M3 receptor = biological target: T2, muscarinic M3 receptor (Rattus norvegicus, UniProt P08483); experiment: Inhibition of M3 muscarinic receptor binding ([3H]-N-methylscopolamine, lacrimal gland membrane); settings: for Ki: rat lacrimal gland membrane, 0.02 nM [3H]-N-methylscopolamine; for M1 / M3 / M2 / M3: ratio of binding Ki
T2 construct: the membrane preparations of the lacrimal glands were used as the test specimens; from tissue; host or cells: rat lacrimal gland membranes (male SD rats)
T2 sequence (P08483 whole entry): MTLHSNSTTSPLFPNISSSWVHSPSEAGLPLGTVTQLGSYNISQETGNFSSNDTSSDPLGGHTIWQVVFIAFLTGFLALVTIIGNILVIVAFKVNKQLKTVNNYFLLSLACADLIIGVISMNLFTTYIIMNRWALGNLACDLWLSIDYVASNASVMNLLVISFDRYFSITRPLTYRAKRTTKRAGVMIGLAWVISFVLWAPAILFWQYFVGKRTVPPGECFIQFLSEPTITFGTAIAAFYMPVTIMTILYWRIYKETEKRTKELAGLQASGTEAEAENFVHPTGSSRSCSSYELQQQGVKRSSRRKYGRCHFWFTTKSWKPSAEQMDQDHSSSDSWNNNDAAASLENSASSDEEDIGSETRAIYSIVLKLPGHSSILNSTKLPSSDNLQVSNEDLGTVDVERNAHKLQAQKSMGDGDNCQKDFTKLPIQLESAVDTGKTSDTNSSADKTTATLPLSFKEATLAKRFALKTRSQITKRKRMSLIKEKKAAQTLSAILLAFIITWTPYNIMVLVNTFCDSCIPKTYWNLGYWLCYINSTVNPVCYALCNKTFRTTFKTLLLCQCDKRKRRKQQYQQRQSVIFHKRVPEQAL
Experimental: as §1
(§3) Namely, a cerebral cortex membrane preparation, 1 nM [^3 H]-telenzepine ([^3 H]-Telenzepine, 85 Ci/mmol, New England Nuclear) and a test compound were incubated in 0.5 ml of tris buffer at room temperature (about 20-25° C.) for 120 minutes. Into the incubated system, 0.5 ml of ice-cooled tris buffer was added and suction-filtered with a glass filter (Packard Unifilter Plate GF/C). The filter was washed 4 times each with 1 ml of ice-cooled tris buffer. After drying the filter at 50° C. for an hour, a scintillator (Microscinti O: Packard Instrument Co., Inc.) was added and the radioactivity of the [^3 H]-telenzepine which was adsorbed onto the filter was measured with a microplate scintillation counter (Top Count: Packard Instrument Co., Inc.). Non-specific binding of [^3 H]-telenzepine to the receptors was determined under addition of 10 μM pirenzepine.
as §2, with “lacrimal glands” for “heart”, “0.02” for “0.2”, “H]-N-methylscopolamine” for “H]-N-methylscopolamine ([^3 H]-N-Methylscopolamine, 84 Ci/mmol, New England Nuclear)”, “receptor” for “receptors”

right atrium M2 receptor = biological target: T3, right atrium M2 receptor (Rattus norvegicus, UniProt P10980); experiment: Antagonism to M2 receptor in isolated rat right atrium; settings: agonist carbachol
T3 construct: the right atrium was isolated; from tissue; host or cells: isolated rat right atrium (male SD rats)
T3 sequence (P10980 1-466): T1 sequence (P10980 1-466)
Experimental: This test was conducted following the method of Wess, et al. [British Journal of Pharmacology, Vol. 102, pp. 246-250]. Male SD strain rats (weighing 200-300 g) were sacrificed by exsanguination and the right atrium was isolated. […] The heart rate was recorded with a heart rate counter. After the preparation was equilibrated for 30 minutes, carbachol (10^-9 to 10^-6 M) was cumulatively administered from a low concentration to three-fold increased doses. Thus, a decrease in heart rate was measured to obtain a control dose-response curve. After the preparation was washed with fresh solution to recover the heart rate, a test compound was administered thereto. Ten minutes later, carbachol was cumulatively administered again. Carbachol-induced responses were expressed as percentages based on the heart rate before administration of carbachol as 100%.

airway M3 receptor = biological target: T4, airway M3 receptor (Rattus norvegicus, UniProt P08483); experiment: Antagonism to airway M3 receptor in isolated rat trachea; settings: agonist carbachol
T4 construct: the trachea was isolated; from tissue; host or cells: isolated rat trachea (male SD rats)
T4 sequence (P08483 whole entry): as above
Experimental: Male SD strain rats (200-300 g) were sacrificed by exsanguination and the trachea was isolated. Ring segments (2 mm wide) were cut out from the trachea and cut transversely at the anterior cartilage part to make open ring preparations. Each preparation was suspended in a Magnus tube filled with 5 ml of Krebs-Henseleit solution (gassed with 95% O2 -5% CO2, at 37° C.) at an initial tension of 1.0 g and a resting tension of 0.6 g. The tension of the preparation was recorded isometrically. After being equilibrated for an hour, the preparation was made to contract twice by treatment with 10^-4 M carbachol, and the second contraction induced by carbachol was used as the reference contraction. After the preparation was washed with fresh solution to be recovered to the base line, a test compound was administered thereto (or no treatment was given). Ten minutes later, carbachol (10^-8 to 10^-3 M) was cumulatively administered in three-fold increased doses to obtain a dose-response curve. The dose-response curve was plotted by expressing responses as percentages based on the reference contraction of the preparation as 100%. The antagonistic potency (KB value) of the test compound was determined from the degree of shift of the dose-response curve obtained by treatment with the test compound.

ileum M3 receptor = biological target: T5, ileum M3 receptor (Rattus norvegicus, UniProt P08483); experiment: Antagonism to intestinal tract M3 receptor in isolated rat ileum; settings: agonist carbachol, read-out: KB ileus M3
T5 construct: the ileum was isolated and formed into 2 cm-long preparations; from tissue; host or cells: isolated rat ileum (male SD rats)
T5 sequence (P08483 whole entry): as above
Experimental: Male SD strain rats (200-300 g) were sacrificed by exsanguination, and the ileum was isolated and formed into 2 cm-long preparations. […] Tension in the preparation was isotonically recorded. After an hour's equilibration, the preparation was contracted twice with 10^-6 M carbachol, the second contraction being recorded as the reference contraction. After the preparation was washed with fresh solution and recovered to the base line, a test compounds was administered thereto (or no treatment was given). Ten minutes later, carbachol (10^-8 to 10^-3 M) was cumulatively administered to the preparation from at a low concentration to three-fold increased dose to obtain a dose-response curve. The dose-response curve was plotted by expressing responses as percentages based on the reference contraction of the preparation which was set to be 100%.

bladder M3 receptor = biological target: T6, bladder M3 receptor (Rattus norvegicus, UniProt P08483); experiment: Antagonism to bladder M3 receptor in isolated rat urinary bladder; settings: agonist carbachol
T6 construct: the urinary bladder was isolated; from tissue; host or cells: isolated rat urinary bladder (male SD rats)
T6 sequence (P08483 whole entry): as above
Experimental: Male SD strain rats (200-300 g) were sacrificed by exsanguination and the urinary bladder was isolated. The bladders were cut into four longitudinal unfold sections, to form about 10 mm-long preparations. Each preparation was suspended in a Magnus tube filled with 5 ml of Krebs-Henseleit solution (gassed with 95% O2 -5% CO2 at 32° C.) at an initial tension of 0.5 g. The tension in the preparation was isometrically recorded. After an hour's equilibration, the preparation was contracted twice with 10^-4 M carbachol, the second contraction being recorded as the reference contraction. After the preparation was washed with fresh solution and recovered to the base line, a test compound was administered thereto (or no treatment was given). Ten minutes later, carbachol (10^-8 to 10^-3 M) was cumulatively administered to the preparation from at a low concentration to three-fold increased dose to obtain a dose-response curve. The dose-response curve was plotted by expressing responses as percentages based on the reference contraction of the preparation which was set to be 100%. The antagonistic potency (KB value) of the test compound was determined from the degree of shift in the dose-response curve resulted from the treatment with the test compound.

[1] = system: airway resistance increase; experiment: Airway resistance enhancement in rats (acetylcholine-induced); format: in vivo, rat; settings: for ED50: iv, 5 min, rat, i.v., acetylcholine 50 μg/kg, read-out: airway constriction ID50; for activities in both airway constriction and bradycardia, in words: in vivo, Table 3, both tests
Experimental: Eight- to eleven-weeks-old Sprague-Dawley strain rats (300-400 g) were anesthetized with urethane (750 mg/kg, i.p.) and α-chloralose (37.5 mg/kg, i.p.). The bronchus of each rat was intubated, and the right jugular vein was cannulated for drug administration. […] After stable airway resistance increase induced by intravenous administration of acetylcholine (50 μg/kg) was observed, a test compound was administered intravenously. After 5 minutes, once again the airway resistance increase was induced with acetylcholine. The inhibition ratio of the tested compound on the airway resistance increase before administration of the test compound was calculated, and the dose of the test compound which inhibited the airway resistance obtained before the drug administration by 50% was recorded as ID50 value.

bradycardia = experiment: Rat bradycardia (acetylcholine-induced); format: in vivo; settings: for ED50: iv, 5 min, rat, i.v., acetylcholine 10 μg/kg, read-out: bradycardia ID50; for selectivity of bronchodilation over bradycardiac response, in words: in vivo, Table 3
Experimental: Eight- to eleven-weeks-old Sprague-Dawley strain rats (300-400 g) were anesthetized by intraperitoneal injection of urethane (750 mg/kg) and α-chloralose (37.5 mg/kg), and their right carotid artery, left juglar vein and airway of the rat were cannulated. […] After stable bradycardia induced by intravenous administration of acetylcholine (10 μg/kg) was observed, a test compound was intravenously administered. Five minutes later, bradycardia was induced once again with acetylcholine administration. The inhibition ratio to the bradyeardia obtained before the administration of the test compound was calculated, and the dose of the test compound which inhibited the bradycardia obtained before the drug administration by 50% was recorded as ID50 value.

muscarinic M1 receptor = biological target: T7, muscarinic M1 receptor (Rattus norvegicus, UniProt P08482); experiment: Inhibition of M1 muscarinic receptor binding ([3H]-telenzepine, cerebral cortex membrane); settings: 1 nM [3H]-telenzepine
T7 construct: a cerebral cortex membrane preparation, 1 nM; from tissue; host or cells: rat cerebral cortex membranes (male SD rats)
T7 sequence (P08482 1-460): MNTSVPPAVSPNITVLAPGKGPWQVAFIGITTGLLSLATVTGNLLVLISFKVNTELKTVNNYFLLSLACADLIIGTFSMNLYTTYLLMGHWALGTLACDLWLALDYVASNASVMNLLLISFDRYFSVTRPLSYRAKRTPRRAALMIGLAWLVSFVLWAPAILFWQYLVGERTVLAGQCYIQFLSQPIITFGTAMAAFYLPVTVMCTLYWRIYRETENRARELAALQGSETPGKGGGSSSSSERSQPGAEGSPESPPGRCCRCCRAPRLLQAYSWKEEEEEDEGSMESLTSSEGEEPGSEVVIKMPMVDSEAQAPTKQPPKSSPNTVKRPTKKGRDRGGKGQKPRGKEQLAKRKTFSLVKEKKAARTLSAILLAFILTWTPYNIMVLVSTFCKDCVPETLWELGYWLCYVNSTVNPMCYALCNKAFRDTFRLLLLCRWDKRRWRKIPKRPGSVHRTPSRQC
Experimental: as §1, §3

| Compound | Ki (muscarinic M2 receptor) | Ki (muscarinic M3 receptor) | Kb (right atrium M2 receptor) | Kb (airway M3 receptor) | Kb (ileum M3 receptor) | Kb (bladder M3 receptor) | ED50 [1] | ED50 (bradycardia) | Ki (muscarinic M1 receptor) | M1 / M3 (muscarinic M3 receptor) | M2 / M3 (muscarinic M3 receptor) | activities in both airway constriction and bradycardia, in words [1] | selectivity of bronchodilation over bradycardiac response, in words (bradycardia) |
| --- | --- | --- | --- | --- | --- | --- | --- | --- | --- | --- | --- | --- | --- |
| Cc1cccc(CN2CCC(NC(=O)[C@](O)(c3ccccc3)C3CCCC3)CC2)n1.Cl.Cl [Example 1, (2R)-N-[1-(6-methyl-2-pyridylmethyl)piperidin-4-yl]-2-cyclopentyl-2-hydroxy-2-phenylacetamide dihydrochloride] | 1.1 µM | 0.0029 µM | 1.1 µM | 0.0044 µM | 0.07 µM | 0.0036 µM | 37 µg/kg | > 3000 µg/kg |  |  |  |  |  |
| O=C(NC1CCN(Cc2cc(Cl)ccn2)CC1)C(O)(c1ccccc1)C1CCCC1 (stereo not shown) [Example 11, N-[1-(4-chloro-2-pyridylmethyl)piperidin-4-yl]-2-cylopentyl-2-hydroxy-2-phenylacetamide] | 0.73 µM | 0.0088 µM |  |  |  |  |  |  | 0.011 µM | 1.3 | 83 |  |  |
| CN1[C@@H]2CC[C@H]1C[C@@H](OC(=O)C(CO)c1ccccc1)C2 (stereo partly shown) [atropine] |  |  |  |  |  |  | 4.3 µg/kg | 3.7 µg/kg |  |  |  | potent activities in both cases | non-selective |
| O=C(NC1CCN(Cc2cccc(Cl)n2)CC1)C(O)(c1ccccc1)C1CCCC1 (stereo not shown) [Example 10, N-[1-(6-chloro-2-pyridylmethyl)piperidin-4-yl]-2-cyclopentyl-2-hydroxy-2-phenylacetamide] | 1.3 µM | 0.0076 µM |  |  |  |  |  |  | 0.016 µM | 2.1 | 170 |  |  |
| CC(C)[N+]1(C)[C@@H]2CC[C@H]1C[C@@H](OC(=O)C(CO)c1ccccc1)C2 (stereo partly shown) [ipratropium] |  |  |  |  |  |  | 1.5 µg/kg | 1.8 µg/kg |  |  |  | potent activities in both cases | non-selective |
| COc1ccnc(CN2CCC(NC(=O)C(O)(c3ccccc3)C3CCCC3)CC2)c1 (stereo not shown) [Example 9, N-[1-(4-methoxy-2-pyridylmethyl)piperidin-4-yl]-2-cyclopentyl-2-hydroxy-2-phenylacetamide] | 1.3 µM | 0.0094 µM |  |  |  |  |  |  | 0.029 µM | 3.1 | 140 |  |  |
